The results in this text go back to PubChem BioAssay AID651866 (The Scripps Research Institute Molecular Screening Center, 2012).

The target in the experiment is Protein-arginine deiminase type-3 (Homo sapiens) (UniProt Q9ULW8). Kind of experiment: PubChem AID 651866. As to conditions: recombinant PAD3, citrulline colorimetric, time-dependent inactivation; active compounds read high.

By kinact/KI is commonly meant the second-order rate constant of inactivation.

Sequence of Protein-arginine deiminase type-3 (Homo sapiens) (Q9ULW8 whole entry, looked up): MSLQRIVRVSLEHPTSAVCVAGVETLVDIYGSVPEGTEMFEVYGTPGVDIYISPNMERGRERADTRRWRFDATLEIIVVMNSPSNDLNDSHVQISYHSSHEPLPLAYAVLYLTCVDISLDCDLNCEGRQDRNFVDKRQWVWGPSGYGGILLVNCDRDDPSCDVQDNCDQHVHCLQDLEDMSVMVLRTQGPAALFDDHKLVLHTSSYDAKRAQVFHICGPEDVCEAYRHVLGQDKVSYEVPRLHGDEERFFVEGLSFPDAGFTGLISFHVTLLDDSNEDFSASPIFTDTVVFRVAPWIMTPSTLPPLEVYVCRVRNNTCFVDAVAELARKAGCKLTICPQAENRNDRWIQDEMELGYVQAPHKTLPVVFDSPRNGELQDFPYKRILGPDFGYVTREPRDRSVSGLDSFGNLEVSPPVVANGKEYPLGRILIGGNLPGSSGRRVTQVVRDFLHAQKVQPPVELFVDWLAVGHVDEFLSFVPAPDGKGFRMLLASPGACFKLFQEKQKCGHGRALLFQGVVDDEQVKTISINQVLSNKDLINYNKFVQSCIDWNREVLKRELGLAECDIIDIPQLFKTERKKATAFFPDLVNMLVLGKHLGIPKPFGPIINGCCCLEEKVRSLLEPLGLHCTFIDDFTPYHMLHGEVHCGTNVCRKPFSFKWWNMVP

In the case of `NC1=CC(=O)c2ccc(-c3cccc(C(=O)O)n3)nc2C1=O`, the inactivation efficiency (kinact/KI) is 31.7 M⁻¹ s⁻¹.
